Data on 26 compounds can be found in ChEMBL document CHEMBL1933047, “Novel poly(ADP-ribose) polymerase-1 inhibitors” (Bioorg Med Chem Lett, 2012).

Assay [1] addresses Poly [ADP-ribose] polymerase 1 (Rattus norvegicus) (UniProt P27008). The assay can be described thus: Inhibition of PARP1 in rat PC12 cells assessed as NAD+ recovery at 1 uM pre-treated for 1 hr before hydrogen peroxide addition followed by washout and compound treated again for 1 hr relative to control. The format is cell-based. To be noted: PC-12.
Assay [2] shares this target. Description: Inhibition of PARP1 in rat PC12 cells assessed as NAD+ recovery at 30 uM pre-treated for 1 hr before hydrogen peroxide addition followed by washout and compound treated again for 1 hr relative to 5H-phenanthridin-6-one. Conditions: PC-12. It is filed as cell-based.
Assay [3] has the same target. Description: Inhibition of PARP1 in rat PC12 cells assessed as NAD+ recovery at 3 uM pre-treated for 1 hr before hydrogen peroxide addition followed by washout and compound treated again for 1 hr relative to 5H-phenanthridin-6-one. To be noted: PC-12. The format is cell-based.
Assay [4] deals with Poly [ADP-ribose] polymerase 1 (Homo sapiens, UniProt P09874). Description: Inhibition of recombinant human PARP1 by in vitro assay.
Chain of Poly [ADP-ribose] polymerase 1 (P09874 whole entry): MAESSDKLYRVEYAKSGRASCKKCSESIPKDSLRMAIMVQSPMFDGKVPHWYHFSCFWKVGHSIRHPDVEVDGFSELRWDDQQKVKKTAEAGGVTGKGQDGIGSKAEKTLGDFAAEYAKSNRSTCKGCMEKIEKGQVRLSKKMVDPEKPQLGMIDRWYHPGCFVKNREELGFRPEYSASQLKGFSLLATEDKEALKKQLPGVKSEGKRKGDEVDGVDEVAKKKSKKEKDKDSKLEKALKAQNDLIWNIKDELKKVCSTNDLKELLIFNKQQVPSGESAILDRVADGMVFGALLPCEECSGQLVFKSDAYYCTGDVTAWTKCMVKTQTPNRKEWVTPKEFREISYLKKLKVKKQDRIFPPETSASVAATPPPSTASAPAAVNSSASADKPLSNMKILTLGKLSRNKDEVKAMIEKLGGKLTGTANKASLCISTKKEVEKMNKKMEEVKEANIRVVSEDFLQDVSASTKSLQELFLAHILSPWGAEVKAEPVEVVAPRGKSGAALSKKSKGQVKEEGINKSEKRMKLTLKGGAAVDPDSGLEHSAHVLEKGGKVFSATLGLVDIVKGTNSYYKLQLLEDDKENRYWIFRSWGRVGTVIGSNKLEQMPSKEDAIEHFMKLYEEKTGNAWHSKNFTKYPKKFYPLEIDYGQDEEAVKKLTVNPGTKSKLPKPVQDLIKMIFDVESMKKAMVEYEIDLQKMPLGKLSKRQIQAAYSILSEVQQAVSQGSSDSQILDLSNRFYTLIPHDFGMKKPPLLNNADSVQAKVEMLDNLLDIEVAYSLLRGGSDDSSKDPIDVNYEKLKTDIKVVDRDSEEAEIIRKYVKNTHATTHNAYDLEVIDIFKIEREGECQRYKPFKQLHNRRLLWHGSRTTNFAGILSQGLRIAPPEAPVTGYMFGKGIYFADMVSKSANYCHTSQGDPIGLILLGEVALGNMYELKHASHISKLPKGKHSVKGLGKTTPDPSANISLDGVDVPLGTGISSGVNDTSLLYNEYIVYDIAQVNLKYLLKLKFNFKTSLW
In assay [5] the target is Poly [ADP-ribose] polymerase 1 (Rattus norvegicus) (UniProt P27008). The assay can be described thus: Inhibition of PARP1 in rat PC12 cells assessed as NAD+ recovery at 10 uM pre-treated for 1 hr before hydrogen peroxide addition followed by washout and compound treated again for 1 hr relative to 5H-phenanthridin-6-one. The format is cell-based. To be noted: PC-12.
Chain of Poly [ADP-ribose] polymerase 1 (Rattus norvegicus) (P27008 whole entry): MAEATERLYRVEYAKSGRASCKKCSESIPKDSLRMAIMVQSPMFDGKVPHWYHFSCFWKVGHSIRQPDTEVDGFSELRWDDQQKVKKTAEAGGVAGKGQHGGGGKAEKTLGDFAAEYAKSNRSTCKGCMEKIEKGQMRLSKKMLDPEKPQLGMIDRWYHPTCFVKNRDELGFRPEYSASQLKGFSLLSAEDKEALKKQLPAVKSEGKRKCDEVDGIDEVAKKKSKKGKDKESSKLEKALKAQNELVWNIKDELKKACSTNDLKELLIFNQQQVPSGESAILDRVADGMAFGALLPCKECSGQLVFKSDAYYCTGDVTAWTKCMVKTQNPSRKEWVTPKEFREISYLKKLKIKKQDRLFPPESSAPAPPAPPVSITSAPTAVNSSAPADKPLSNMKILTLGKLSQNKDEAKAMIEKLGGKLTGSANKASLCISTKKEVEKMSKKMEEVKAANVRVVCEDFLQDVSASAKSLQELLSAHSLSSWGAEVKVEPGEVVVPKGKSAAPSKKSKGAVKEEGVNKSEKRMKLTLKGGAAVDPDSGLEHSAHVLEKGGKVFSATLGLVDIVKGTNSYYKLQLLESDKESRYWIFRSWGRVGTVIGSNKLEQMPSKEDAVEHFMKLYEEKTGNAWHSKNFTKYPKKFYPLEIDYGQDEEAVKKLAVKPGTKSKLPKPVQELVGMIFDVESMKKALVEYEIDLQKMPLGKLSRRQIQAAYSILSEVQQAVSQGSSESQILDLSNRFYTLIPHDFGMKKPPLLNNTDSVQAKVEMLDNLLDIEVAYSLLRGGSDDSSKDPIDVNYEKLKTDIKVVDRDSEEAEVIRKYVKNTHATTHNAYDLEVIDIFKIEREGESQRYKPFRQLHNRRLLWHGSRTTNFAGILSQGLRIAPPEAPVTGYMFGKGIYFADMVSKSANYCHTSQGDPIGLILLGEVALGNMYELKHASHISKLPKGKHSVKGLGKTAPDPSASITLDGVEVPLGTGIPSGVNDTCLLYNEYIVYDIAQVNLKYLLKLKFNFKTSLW

With `CN1N=C(c2ccc3[nH]c4c5c(c6c(c4c3c2)C(=O)NC6=O)CCC5)CCC1=O`, the inhibition in assay [1] was 29%.

For `O=C1NC(=O)c2c1c1c(c3[nH]c4ccccc4c23)CCC1`, the inhibition in assay [1] amounted to 30%; in assay [2], 42%.

Turning to `O=C(CCC(=O)N1CCCC1)c1ccc2[nH]c3c4c(c5c(c3c2c1)C(=O)NC5=O)CCC4`, the inhibition in assay [1] is 32%; in assay [2], 92%.

As for `NC(=O)[C@@H]1CCCN1C(=O)CCC(=O)c1ccc2[nH]c3c4c(c5c(c3c2c1)C(=O)NC5=O)CCC4`, the inhibition in assay [1] is 11%.

Regarding `CC(C)(C)OC(=O)N1CCN(C(=O)CCC(=O)c2ccc3[nH]c4c5c(c6c(c4c3c2)C(=O)NC6=O)CCC5)CC1`, the results for the inhibition in assay [1] and in assay [2] were 19% and 29%, respectively.

`CCN(CC)C(=O)CCC(=O)c1ccc2[nH]c3c4c(c5c(c3c2c1)C(=O)NC5=O)CCC4`: the results for the inhibition in assay [1] and in assay [2] were 41% and 78%, respectively.

As for `CC(C)(C)OC(=O)[C@@H]1CCCN1C(=O)CCC(=O)c1ccc2[nH]c3c4c(c5c(c3c2c1)C(=O)NC5=O)CCC4`, the inhibition in assay [1] is 39%; in assay [2], 98%.

As for `CC(C)(C)OC(=O)[C@@H]1CCCN1CC(=O)c1ccc2[nH]c3c4c(c5c(c3c2c1)C(=O)NC5=O)CCC4`, the inhibition in assay [1] stood at 24%; in assay [2] it was 88%.

With `CN(CC(=O)O)CC(=O)c1ccc2[nH]c3c4c(c5c(c3c2c1)C(=O)NC5=O)CCC4`, the values for the inhibition in assay [1] and in assay [2] were 14% and 45%, respectively.

For the compound `O=C(Cn1cncn1)c1ccc2[nH]c3c4c(c5c(c3c2c1)C(=O)NC5=O)CCC4`, the inhibition in assay [1] was 25%; in assay [2], 55%.

On to `O=C(CCC(=O)N1CCC[C@H]1C(=O)O)c1ccc2[nH]c3c4c(c5c(c3c2c1)C(=O)NC5=O)CCC4`, for which the results for the inhibition in assay [3] and in assay [1] were 14% and 4%, respectively. In addition, in assay [4], the IC50 amounted to 2 nM.

In the case of `O=C(CN1CCCCC1)c1ccc2[nH]c3c4c(c5c(c3c2c1)C(=O)NC5=O)CCC4`, the inhibition worked out at 14% in assay [1] and 50% in assay [2].

With `CCN(CC)CC(=O)c1ccc2[nH]c3c4c(c5c(c3c2c1)C(=O)NC5=O)CCC4`, the values for the inhibition in assay [1] and in assay [2] were 10% and 70%, respectively.

In the case of `CN(CC(=O)OC(C)(C)C)CC(=O)c1ccc2[nH]c3c4c(c5c(c3c2c1)C(=O)NC5=O)CCC4`, the IC50 in assay [4] worked out at 19 nM. Besides, the figures for the inhibition in assay [1] and in assay [2] were 14% and 73%, respectively.

With `O=C(CCC(=O)c1ccc2[nH]c3c4c(c5c(c3c2c1)C(=O)NC5=O)CCC4)NCCO`, the inhibition in assay [1] stood at 24%; in assay [5] it was 26%.

For the compound `CC(C)(C)OC(=O)NCCNC(=O)CCC(=O)c1ccc2[nH]c3c4c(c5c(c3c2c1)C(=O)NC5=O)CCC4`, the results for the inhibition in assay [1] and in assay [2] were 26% and 48%, respectively.

Turning to `O=C(CCC(=O)N1CCCCC1)c1ccc2[nH]c3c4c(c5c(c3c2c1)C(=O)NC5=O)CCC4`, the inhibition in assay [1] worked out at 55%; in assay [2], 59%.

In the case of `O=C(O)CCC(=O)c1ccc2[nH]c3c4c(c5c(c3c2c1)C(=O)NC5=O)CCC4`, the inhibition in assay [1] turned out to be 8%; in assay [2], 42%.

For `CN1CCN(CC(=O)c2ccc3[nH]c4c5c(c6c(c4c3c2)C(=O)NC6=O)CCC5)CC1`, the inhibition in assay [1] came to 7%; in assay [5], 43%.

Consider `NCCNC(=O)CCC(=O)c1ccc2[nH]c3c4c(c5c(c3c2c1)C(=O)NC5=O)CCC4`, for which the inhibition came out at 14% in assay [1] and 32% in assay [5].

Consider `COC(=O)[C@@H]1CCCN1CC(=O)c1ccc2[nH]c3c4c(c5c(c3c2c1)C(=O)NC5=O)CCC4`, for which the IC50 in assay [4] is 12 nM. The inhibition in assay [1] worked out at 27%; in assay [2] it was 100%.

Regarding `O=C1CCC(c2ccc3[nH]c4c5c(c6c(c4c3c2)C(=O)NC6=O)CCC5)=NN1`, the inhibition in assay [1] was determined as 29%; in assay [5] it was 49%.

Take `O=C(CN1CCOCC1)c1ccc2[nH]c3c4c(c5c(c3c2c1)C(=O)NC5=O)CCC4`: the IC50 in assay [4] was 13 nM. Moreover, the values for the inhibition in assay [1] and in assay [5] were 38% and 63%, respectively.

In the case of `O=C(CCC(=O)N1CCOCC1)c1ccc2[nH]c3c4c(c5c(c3c2c1)C(=O)NC5=O)CCC4`, the inhibition in assay [1] was found to be 38%; in assay [2], 65%.

Take `O=C(CCC(=O)N1CCNCC1)c1ccc2[nH]c3c4c(c5c(c3c2c1)C(=O)NC5=O)CCC4`: the inhibition in assay [1] was determined as 10%.

On to `O=C(CN1CCC[C@H]1C(=O)O)c1ccc2[nH]c3c4c(c5c(c3c2c1)C(=O)NC5=O)CCC4`, for which the IC50 in assay [4] came to 7 nM. In addition, the inhibition worked out at 14% in assay [1] and 43% in assay [2].

What is called inhibition is the percentage by which the read-out fell short of the control. For orientation: IC50 means the concentration needed to halve the response being measured.
